System: yeast genes (level of expressed mRNA)
Assay: DNA chip analysis of expressed mRNA of yeast genes after 2 h culture with a toxic chemical substance
Format: cell-based, Saccharomyces cerevisiae S288C
Protocol: Yeast (Saccharomyces cerevtisiae S288C (α SUC2mal mel gap2 CUP1)) were cultured at 25° C. on YPD medium (yeast extract 1%, polypepton 2%, glucose 2%). One of toxic chemical substances was added to the cell at logarithmic growth phase, and the cell was further cultured for two hours. Cell was cultured without any chemical substance in the same condition, and was used as control. Concentrations of the chemical substances were defined to inhibit the growth of the yeast but not lead to death.
After the completion of cultivation, the culture was centrifuged to collect the cells. To the cells, sodium acetate buffer (50 mM sodium acetate, 10 mM EDTA, 1% SDS) was added, and the mixture was shaken at 65° C. for five minutes, followed by returning to room temperature, and obtaining the supernatant, which procedure was repeated two times. To the supernatant, ½ amount of a solution of phenol/chloroform was added, and the mixture was centrifuged to give a supernatant, which was added with an equal amount of chloroform, and the mixture was centrifuged to give a supernatant. To the supernatant, an equal amount of isopropanol containing 0.3 M sodium acetate was added, and the mixture was allowed to stand at room temperature for 30 minutes, after which the mixture was centrifuged to give a sediment of the whole RNAs. Seventy % ethanol was added to the sediment, and the mixture was again centrifuged to give a sediment, which was then dried and dissolved in water. mRNA was isolated from the whole RNAs as followings. In view of the fact that a poly A chain is attached to the 3′ terminus of mRNA, a polynucleotide having a poly T structure which was immobilized on the surface of latex beads was used to trap the mRNA, and then the mRNA was washed and eluted with spine column (Oligotex-dT30<Super>mRNA Purification Kit, Takara). Reverse transcription of the mRNA was conducted with a reverse transcriptase (Super Script II Reverse Transcriptase; catalogue No. 18064-014, GibcoBRL) using fluorescence-labeled nucleotides to give cDNAs that were introduced with Cy3-dUTP or Cy5-dUTP during the reverse transcription.
The labeled cDNAs were dissolved in TE buffer (10 mM Tris-HCl/1 mM EDTA, pH8.0), and the solution was dropped on the DNA chip containing the whole genes of yeast (DNA Chip Research Inc. Japan) so that the cDNAs were hybridized on the DNA chip at 65° C. for over 12 hours. The fluoresces intensity of the DNA chip was read with a scanner, and the ratio relative to the fluorescence intensity resulting from the absence of chemical substance was estimated as the following, which is shown in Tables 1 to 9: [formula]
In the Tables, “Intensity” indicated in the rightmost column is a value of the level of expressed mRNA of each gene in control cells as divided by the average level of the expressions of the whole genes.

SMILES: CN(C)C(=S)SSC(=S)N(C)C [(10), Tetramethylthiuram disulfide]
- The level of expressed mRNA in the presence of chemical substance/The level of expressed mRNA in the absence of chemical substance (yeast gene YKL013C): 1.4
- The level of expressed mRNA in the presence of chemical substance/The level of expressed mRNA in the absence of chemical substance (yeast gene YKL039W): 3.3
- The level of expressed mRNA in the presence of chemical substance/The level of expressed mRNA in the absence of chemical substance (yeast gene YKL041W): 1.5
- The level of expressed mRNA in the presence of chemical substance/The level of expressed mRNA in the absence of chemical substance (yeast gene YKL096W): 0.5
- The level of expressed mRNA in the presence of chemical substance/The level of expressed mRNA in the absence of chemical substance (yeast gene YKL165C): 0.4
- The level of expressed mRNA in the presence of chemical substance/The level of expressed mRNA in the absence of chemical substance (yeast gene YKL193C): 1.6
- The level of expressed mRNA in the presence of chemical substance/The level of expressed mRNA in the absence of chemical substance (yeast gene YLR120C): 1.6
- The level of expressed mRNA in the presence of chemical substance/The level of expressed mRNA in the absence of chemical substance (yeast gene YLR136C): 6.0
- The level of expressed mRNA in the presence of chemical substance/The level of expressed mRNA in the absence of chemical substance (yeast gene YLR178C): 4.1
- The level of expressed mRNA in the presence of chemical substance/The level of expressed mRNA in the absence of chemical substance (yeast gene YLR250W): 2.4
- The level of expressed mRNA in the presence of chemical substance/The level of expressed mRNA in the absence of chemical substance (yeast gene YLR327C): 8.3
- The level of expressed mRNA in the presence of chemical substance/The level of expressed mRNA in the absence of chemical substance (yeast gene YLR356W): 1.6
- The level of expressed mRNA in the presence of chemical substance/The level of expressed mRNA in the absence of chemical substance (yeast gene YLR362W): 3.3
- The level of expressed mRNA in the presence of chemical substance/The level of expressed mRNA in the absence of chemical substance (yeast gene YLR391W): 0.7
- The level of expressed mRNA in the presence of chemical substance/The level of expressed mRNA in the absence of chemical substance (yeast gene YLR429W): 1.3
- The level of expressed mRNA in the presence of chemical substance/The level of expressed mRNA in the absence of chemical substance (yeast gene YMR004W): 3.4
- The level of expressed mRNA in the presence of chemical substance/The level of expressed mRNA in the absence of chemical substance (yeast gene YMR094W): 0.9
- The level of expressed mRNA in the presence of chemical substance/The level of expressed mRNA in the absence of chemical substance (yeast gene YMR104C): 3.2
- The level of expressed mRNA in the presence of chemical substance/The level of expressed mRNA in the absence of chemical substance (yeast gene YMR219W): 0.9
- The level of expressed mRNA in the presence of chemical substance/The level of expressed mRNA in the absence of chemical substance (yeast gene YMR226C): 2.2
- The level of expressed mRNA in the presence of chemical substance/The level of expressed mRNA in the absence of chemical substance (yeast gene YMR275C): 2.1
- The level of expressed mRNA in the presence of chemical substance/The level of expressed mRNA in the absence of chemical substance (yeast gene YMR276W): 1.7
- The level of expressed mRNA in the presence of chemical substance/The level of expressed mRNA in the absence of chemical substance (yeast gene YMR314W): 2.7
- The level of expressed mRNA in the presence of chemical substance/The level of expressed mRNA in the absence of chemical substance (yeast gene YNL006W): 4.0
- The level of expressed mRNA in the presence of chemical substance/The level of expressed mRNA in the absence of chemical substance (yeast gene YNL007C): 1.7
- The level of expressed mRNA in the presence of chemical substance/The level of expressed mRNA in the absence of chemical substance (yeast gene YNL093W): 2.0
- The level of expressed mRNA in the presence of chemical substance/The level of expressed mRNA in the absence of chemical substance (yeast gene YNL333W): 2.1
- The level of expressed mRNA in the presence of chemical substance/The level of expressed mRNA in the absence of chemical substance (yeast gene YNR010W): 0.9
- The level of expressed mRNA in the presence of chemical substance/The level of expressed mRNA in the absence of chemical substance (yeast gene YNR069C): 5.8
- The level of expressed mRNA in the presence of chemical substance/The level of expressed mRNA in the absence of chemical substance (yeast gene YOL013C): 1.0
- The level of expressed mRNA in the presence of chemical substance/The level of expressed mRNA in the absence of chemical substance (yeast gene YOL164W): 3.6
- The level of expressed mRNA in the presence of chemical substance/The level of expressed mRNA in the absence of chemical substance (yeast gene YOR036W): 1.9
- The level of expressed mRNA in the presence of chemical substance/The level of expressed mRNA in the absence of chemical substance (yeast gene YOR117W): 1.8
- The level of expressed mRNA in the presence of chemical substance/The level of expressed mRNA in the absence of chemical substance (yeast gene YOR124C): 1.9
- The level of expressed mRNA in the presence of chemical substance/The level of expressed mRNA in the absence of chemical substance (yeast gene YOR132W): 1.6
- The level of expressed mRNA in the presence of chemical substance/The level of expressed mRNA in the absence of chemical substance (yeast gene YOR157C): 2.6
- The level of expressed mRNA in the presence of chemical substance/The level of expressed mRNA in the absence of chemical substance (yeast gene YOR181W): 0.5
- The level of expressed mRNA in the presence of chemical substance/The level of expressed mRNA in the absence of chemical substance (yeast gene YOR185C): 2.9
- The level of expressed mRNA in the presence of chemical substance/The level of expressed mRNA in the absence of chemical substance (yeast gene YOR198C): 1.4
- The level of expressed mRNA in the presence of chemical substance/The level of expressed mRNA in the absence of chemical substance (yeast gene YOR259C): 1.5
- The level of expressed mRNA in the presence of chemical substance/The level of expressed mRNA in the absence of chemical substance (yeast gene YOR261C): 2.5
- The level of expressed mRNA in the presence of chemical substance/The level of expressed mRNA in the absence of chemical substance (yeast gene YOR288C): 1.0
- The level of expressed mRNA in the presence of chemical substance/The level of expressed mRNA in the absence of chemical substance (yeast gene YOR355W): 0.8
- The level of expressed mRNA in the presence of chemical substance/The level of expressed mRNA in the absence of chemical substance (yeast gene YOR383C): 4.5
- The level of expressed mRNA in the presence of chemical substance/The level of expressed mRNA in the absence of chemical substance (yeast gene YPL089C): 2.5
- The level of expressed mRNA in the presence of chemical substance/The level of expressed mRNA in the absence of chemical substance (yeast gene YPL109C): 1.5
- The level of expressed mRNA in the presence of chemical substance/The level of expressed mRNA in the absence of chemical substance (yeast gene YPL149W): 3.7
- The level of expressed mRNA in the presence of chemical substance/The level of expressed mRNA in the absence of chemical substance (yeast gene YPL154C): 1.7
- The level of expressed mRNA in the presence of chemical substance/The level of expressed mRNA in the absence of chemical substance (yeast gene YPR103W): 2.0
- The level of expressed mRNA in the presence of chemical substance/The level of expressed mRNA in the absence of chemical substance (yeast gene YPR108W): 2.8
